Columns and labels:
[1] = Pharmacokinetic determination in mice (IV and PO, plasma, LCMS/MS); type: in vivo, Balb/c mice; conditions: for F: PO 30 mg/kg vs IV 1 mg/kg; for AUC(0-inf) / C0 / clearance / half-life / Cmax / Tmax: mouse, in vivo; for C0: read-out: C0; for clearance: read-out: CL; for half-life: read-out: T1/2 (converted)
How it was run: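 Male Balb/c mice, fasted overnight (n=3 per route): PO 30 mg/kg in 10% Captisol/50 mM citrate pH 5.0, or IV 1 mg/kg in 5% DMSO/10% Solutol HS15/85% PBS. Orbital blood sampled predose to 24 h; EDTA plasma analysed by LC-MS/MS.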

[2] = Pharmacokinetic determination in rats (IV and PO, plasma, LCMS/MS); type: in vivo, SD rats
How it was run: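 Male SD rats (3/group), fasted overnight, dosed PO at 30 mg/kg in 10% Captisol/50 mM citrate pH 5.0 or IV at 1 mg/kg in 5% DMSO/10% Solutol HS15/85% PBS. Jugular plasma (EDTA-2K) sampled predose to 24 h; analysed by LCMS/MS.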

[3] = Plasma stability test, human plasma; type: in vitro ADME; conditions: for half-life: read-out: t1/2 (converted);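 as to all read-outs here: test compound incubated in human plasma, quantified by LC-MS/MS (positive-ion ESI, MRM) against an internal standard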
Method: (§1) Liquid chromatography-mass spectrometer, centrifuge, vortexer, pipette, continuous dispenser, 96-well plate, 50% methanol aqueous solution, acetonitrile solution containing internal standard, blank matrix (plasma of rat, dog, or human), Propantheline (propantheline bromide), Mevinolin (lovastatin), and test compound.
(§2) After whole blood was collected from animals or humans, it was placed in a test tube containing an anticoagulant and centrifuged at 3500 rpm for 10 min to collect the upper pale yellow plasma.
(§3) The compound was weighed and the stock solution was formulated with DMSO and the working solution was formulated with 100 mM phosphate buffer.
(§4) • Instrument: API4000 liquid chromatography-mass spectrometer, AB Company, USA; • the ion source was electrospray ionization source (ESI); • drying gas (N2) temperature was 500°C; • electrospray voltage was 5500V; • the detection method was positive ion detection; • the scanning method was selected reaction monitoring (MRM); • the scanning time was 0.1s.

[4] = Plasma stability test, rat plasma; conditions: for Remaining rate (%) 0 min / Remaining rate (%) 15 min / Remaining rate (%) 30 min / Remaining rate (%) 60 min / Remaining rate (%) 120 min: Rat plasma, 37°C; for half-life: rat, plasma
From the text: The purpose of this experiment was to detect the stability of the example compounds in plasma of mouse, rat, dog and human.
as §1, §2, §3
2.36 mg of propantheline bromide was weighed and diluted with 1 mL of DMSO into a 10 mM stock solution; 10 µL of 10 mM stock solution was pipetted into 1 mL of 100 mM phosphate buffer to achieve a final concentration of 100 µM.
4.05 mg of lovastatin was weighed and diluted with 1 mL of DMSO into a 10 mM stock solution; 10 µL of 10 mM stock solution was pipetted into 1 mL of 100 mM phosphate buffer to achieve a final concentration of 100 µM.
• 1) In a 96-well plate, 285 µL of plasma and 15 µL of 10 µM compound (test compound) were added in sequence and incubated at 37°C. • 2) 40 µL was taken at 0, 15, 30, 60, 90, and 120 min (the sampling point can be fine-tuned) and 160 µL of acetonitrile stop solution containing internal standard was add. • 3) After centrifugation (3500 rpm, 10 min), 50 µL of supernatant was taken, and 50 µL of DDH2O added for dilution and then the obtained mixture was injected into LC-MS/MS.
• Instruments: Shimadzu LC-20 AD • Chromatographic column: Phenomenex Gemiu ® C18 (50*4.6 mm, 5 µm particle size); • mobile phase: A: Acetonitrile, B: 0.1% formic acid solution 0-8 min: 5% A→95% A, 2.0-2.1 min: 90%A→5% A; Flow rate: 0.8 mL/min; Run time: 5.0 min; Injection volume: 5 µL.
as §4

[5] = system: GP2D; assay: Inhibition of proliferation of KRAS G12D mutant tumor cell line GP2D (CellTiter-Glo); conditions: Homo sapiens, GP2d, 72 h, read-out: GP2D IC50
[6] = Balb/c mice, intravenously (IV), 1 mg/kg, plasma, read-out: AUCo-∞
[7] = Balb/c mice, intravenously (IV), 1 mg/kg, plasma
[8] = PO, 30 mg/kg, male Balb/c mice, overnight fasting, plasma, read-out: AUC0-∞
[9] = PO, 30 mg/kg, male Balb/c mice, overnight fasting, plasma, read-out: Cmax
[10] = PO, 30 mg/kg, male Balb/c mice, overnight fasting, plasma
[11] = PO, 30 mg/kg, male Balb/c mice, overnight fasting, plasma, read-out: Tmax
[12] = PO 30 mg/kg vs IV 1 mg/kg, male SD rats
[13] = rat, in vivo, IV, 1 mg/kg, male SD rats, overnight fasting, plasma, read-out: AUCo-∞
[14] = rat, in vivo, IV, 1 mg/kg, male SD rats, overnight fasting, plasma, read-out: C0
[15] = rat, in vivo, IV, 1 mg/kg, male SD rats, overnight fasting, plasma, read-out: CL
[16] = rat, in vivo, IV, 1 mg/kg, male SD rats, overnight fasting, plasma, read-out: T1/2 (converted)
[17] = rat, in vivo, PO, 30 mg/kg, male SD rats, overnight fasting, plasma, read-out: AUCo-∞
[18] = rat, in vivo, PO, 30 mg/kg, male SD rats, overnight fasting, plasma, read-out: Cmax
[19] = rat, in vivo, PO, 30 mg/kg, male SD rats, overnight fasting, plasma, read-out: T1/2 (converted)
[20] = rat, in vivo, PO, 30 mg/kg, male SD rats, overnight fasting, plasma, read-out: Tmax

| SMILES | F ([1]; male Balb/c mice) [%] | AUC(0-inf) [1, 6] [ng·h/mL] | C0 [1, 7] [ng/mL] | clearance [1, 7] [mL/min/kg] | half-life [1, 7] [h] | AUC(0-inf) [1, 8] [ng·h/mL] | Cmax [1, 9] [ng/mL] | half-life [1, 10] [h] | Tmax [1, 11] [h] | F [2, 12] [%] | AUC(0-inf) [2, 13] [ng·h/mL] | C0 [2, 14] [ng/mL] | clearance [2, 15] [mL/min/kg] | half-life [2, 16] [h] | AUC(0-inf) [2, 17] [ng·h/mL] | Cmax [2, 18] [ng/mL] | half-life [2, 19] [h] | half-life ([3]; Human plasma, 37°C) [h] | half-life [4] [h] | IC50 [5] [nM] | other results |
| --- | --- | --- | --- | --- | --- | --- | --- | --- | --- | --- | --- | --- | --- | --- | --- | --- | --- | --- | --- | --- | --- |
| C#Cc1c(F)ccc2cc(O)cc(-c3nc4c5c(nc(OCC6(CN7CCC(=C(F)F)CC7)CC6)nc5c3F)N3C[C@H]5CC[C@H](N5)[C@H]3CO4)c12 [Example 1-1, 4-((5aS,6S,9R)-12-((1-((4-(difluoromethylene)piperidin-1-yl)methyl)cyclopropyl)methoxy)-1-fluoro-5a,6,7,8,9,10-hexahydro-5H-4-oxa-3,10a,11,13,14-pentaaza-6,9-methylenenaphtho[1,8-ab]heptalene-2-yl)-5-ethynyl-6-fluoronaphthalen-2-ol] | 12.1 | 583 | 886 | 28.6 | 8.6 | 2110 | 227 | 9.1 | 0.5 | 2.1 | 2960 | 1770 | 5.6 | 16.3 | 1890 | 254 | 5.1 | 31.4 | 13.5 | 1.2 | Tmax [2, 20]: 6 h; Remaining rate (%) 0 min ([3]; Human plasma, 37°C, 0 min): 100.00%; Remaining rate (%) 15 min ([3]; Human plasma, 37°C, 15 min): 100.68%; Remaining rate (%) 30 min ([3]; Human plasma, 37°C, 30 min): 101.72%; Remaining rate (%) 60 min ([3]; Human plasma, 37°C, 60 min): 97.62%; Remaining rate (%) 120 min ([3]; Human plasma, 37°C, 120 min): 88.35%; Remaining rate (%) 0 min [4]: 100.00%; Remaining rate (%) 15 min [4]: 95.76%; Remaining rate (%) 30 min [4]: 92.93%; Remaining rate (%) 60 min [4]: 88.38%; Remaining rate (%) 120 min [4]: 80.60% |
| C#Cc1c(F)ccc2cc(O)cc(-c3nc4c5c(nc(OCC6(CN7CCC(=C(F)F)CC7)CC6)nc5c3F)N3C[C@H]5CC[C@H](N5)[C@H]3[C@H](C)O4)c12 [Example 19-1, 4-((5S,5aS,6S,9R)-12-((1-((4-(difluoromethylene)piperidin-1-yl)methyl)cyclopropyl)methoxy)-1-fluoro-5-methyl-5a,6,7,8,9,10-hexahydro-5H-4-oxa-3,10a,11,13,14-pentaaza-6,9-methylnaphtho[1,8-ab]hept-2-yl)-5-ethynyl-6-fluoronaphthalene-2-ol] | 11.2 | 476 | 904 | 35 | 11.2 | 1610 | 316 | 7.2 | 1 | 5.4 | 1900 | 1720 | 8.8 | 10.1 | 3080 | 329 | 8.2 | 15.5 | 86.3 | 0.16 | Tmax [2, 20]: 2 h; Remaining rate (%) 0 min ([3]; Human plasma, 37°C, 0 min): 100.00%; Remaining rate (%) 15 min ([3]; Human plasma, 37°C, 15 min): 95.61%; Remaining rate (%) 30 min ([3]; Human plasma, 37°C, 30 min): 93.15%; Remaining rate (%) 60 min ([3]; Human plasma, 37°C, 60 min): 85.08%; Remaining rate (%) 120 min ([3]; Human plasma, 37°C, 120 min): 83.37%; Remaining rate (%) 0 min [4]: 100.00%; Remaining rate (%) 15 min [4]: 96.27%; Remaining rate (%) 30 min [4]: 91.39%; Remaining rate (%) 60 min [4]: 95.69%; Remaining rate (%) 120 min [4]: 94.09% |
| [2H]C([2H])([2H])[C@@H]1Oc2nc(-c3cc(O)cc4ccc(F)c(C#C)c34)c(F)c3nc(OCC4(CN5CCC(=C(F)F)CC5)CC4)nc(c23)N2C[C@H]3CC[C@H](N3)[C@@H]12 [Example 161, 4-((5S,5aS,6S,9R)-12-((1-((4-(difluoromethylene)piperidin-1-yl)methyl)cyclopropyl)methoxy)-1-fluoro-5-(methyl-d3)-5a,6,7,8,9,10-hexahydro-5H-4-oxa-3,10a,11,13,14-pentaaza-6,9-methylnaphtho[1,8-ab]hept-2-yl)-5-ethynyl-6-fluoronaphthalen-2-ol] |  |  |  |  |  |  |  |  |  |  |  |  |  |  |  |  |  | 142 | 29.4 | 0.24 | AUC(0-inf) ([1]; po, 30 mg/kg): 1550 ng·h/mL; Cmax ([1]; po, 30 mg/kg): 221 ng/mL; Tmax ([1]; po, 30 mg/kg): 2 h; F ([2]; rat, in vivo): 7%; AUC(0-inf) ([2]; rat, in vivo, iv, 1 mg/kg): 1420 ng·h/mL; C0 ([2]; rat, in vivo, iv, 1 mg/kg): 704 ng/mL; clearance ([2]; rat, in vivo, iv, 1 mg/kg): 11.7 mL/min/kg; half-life ([2]; rat, in vivo, iv, 1 mg/kg): 8.4 h; AUC(0-inf) ([2]; rat, in vivo, po, 30 mg/kg): 2890 ng·h/mL; Cmax ([2]; rat, in vivo, po, 30 mg/kg): 254 ng/mL; Tmax ([2]; rat, in vivo, po, 30 mg/kg): 6 h; half-life ([2]; rat, in vivo, po, 30 mg/kg): 6.9 h; Remaining rate (%) 0 min ([3]; human, plasma, 0 h): 100.00%; Remaining rate (%) 15 min ([3]; human, plasma, 0.25 h): 93.48%; Remaining rate (%) 30 min ([3]; human, plasma, 0.5 h): 92.44%; Remaining rate (%) 60 min ([3]; human, plasma, 1 h): 95.19%; Remaining rate (%) 120 min ([3]; human, plasma, 2 h): 97.25% |

Source: patent EP4635958A1, “PYRIMIDINE-CONTAINING POLYCYCLIC DERIVATIVE INHIBITOR, AND PREPARATION METHOD THEREFOR AND USE THEREOF” (Shanghai Hansoh Biomedical Co., Ltd., priority 2022, dated 2024)
